The kinase profiling compilation of Christmann-Franck et al. (2016)

Tests used:
Assay in all cases: radiometric filter-binding kinase assay, Kinase HotSpot
Settings in all cases: compound 0.5 µM; ATP 10 µM
ABL1 (human) = ABL1 (human) (UniProt P00519)
BRAF (human) = BRAF (human) (UniProt P15056)
CAMK2D (human) = CAMK2D (human) (UniProt Q13557)
CDK5 CDK5R1 p25 (human) = CDK5 CDK5R1 p25 (human) (UniProt Q00535+Q15078)
CHUK (human) = CHUK (human) (UniProt O15111)
CSK (human) = CSK (human) (UniProt P41240)
CSNK1E (human) = CSNK1E (human) (UniProt P49674)
Sequence of CSNK1E (human) (P49674 whole entry, looked up): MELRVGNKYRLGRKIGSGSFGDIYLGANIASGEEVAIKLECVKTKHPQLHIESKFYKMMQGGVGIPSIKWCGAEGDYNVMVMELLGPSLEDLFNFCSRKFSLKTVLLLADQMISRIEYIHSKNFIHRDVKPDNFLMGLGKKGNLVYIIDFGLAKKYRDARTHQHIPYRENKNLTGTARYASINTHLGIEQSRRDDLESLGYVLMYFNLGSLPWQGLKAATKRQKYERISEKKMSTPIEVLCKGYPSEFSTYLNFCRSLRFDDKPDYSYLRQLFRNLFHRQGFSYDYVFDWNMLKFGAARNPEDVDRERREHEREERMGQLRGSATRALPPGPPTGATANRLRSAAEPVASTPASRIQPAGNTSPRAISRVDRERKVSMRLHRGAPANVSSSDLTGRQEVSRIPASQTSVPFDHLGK

CSNK2A2 (human) = CSNK2A2 (human) (UniProt P19784)
Sequence of CSNK2A2 (human) (P19784 whole entry, looked up): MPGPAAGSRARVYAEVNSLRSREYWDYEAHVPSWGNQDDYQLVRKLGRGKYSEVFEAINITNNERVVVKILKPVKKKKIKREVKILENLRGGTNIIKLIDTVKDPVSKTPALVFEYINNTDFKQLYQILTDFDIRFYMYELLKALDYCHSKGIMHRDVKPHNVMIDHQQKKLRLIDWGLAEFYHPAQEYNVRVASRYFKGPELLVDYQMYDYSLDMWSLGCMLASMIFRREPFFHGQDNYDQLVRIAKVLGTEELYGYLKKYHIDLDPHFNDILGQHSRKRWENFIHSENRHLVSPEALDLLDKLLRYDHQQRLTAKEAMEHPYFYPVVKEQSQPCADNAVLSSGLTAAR

DYRK1B (human) = DYRK1B (human) (UniProt Q9Y463)
DYRK4 (human) = DYRK4 (human) (UniProt Q9NR20)
EPHB1 (human) = EPHB1 (human) (UniProt P54762)
IRAK4 (human) = IRAK4 (human) (UniProt Q9NWZ3)
Sequence of IRAK4 (human) (Q9NWZ3 whole entry, looked up): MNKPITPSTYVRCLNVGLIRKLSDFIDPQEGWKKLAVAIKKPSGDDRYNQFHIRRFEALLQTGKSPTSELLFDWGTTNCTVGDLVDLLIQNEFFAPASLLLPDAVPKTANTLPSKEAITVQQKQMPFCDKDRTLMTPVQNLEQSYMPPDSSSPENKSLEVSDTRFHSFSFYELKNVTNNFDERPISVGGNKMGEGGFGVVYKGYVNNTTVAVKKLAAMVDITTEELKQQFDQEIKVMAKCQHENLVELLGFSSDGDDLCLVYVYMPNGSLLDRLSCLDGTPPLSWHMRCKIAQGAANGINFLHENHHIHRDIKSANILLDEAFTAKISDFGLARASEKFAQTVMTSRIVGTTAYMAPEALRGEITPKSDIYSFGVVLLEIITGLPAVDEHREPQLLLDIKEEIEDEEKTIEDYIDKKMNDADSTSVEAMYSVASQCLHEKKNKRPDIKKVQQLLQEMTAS

JAK2 JH1 JH2 (human) = JAK2 JH1 JH2 (human) (UniProt O60674)
JAK3 JH1 JH2 (human) = JAK3 JH1 JH2 (human) (UniProt P52333)
MAPK11 (human) = MAPK11 (human) (UniProt Q15759)
MAPK12 (human) = MAPK12 (human) (UniProt P53778)
MAPK8 (human) = MAPK8 (human) (UniProt P45983)
MAPK9 (human) = MAPK9 (human) (UniProt P45984)
MATK (human) = MATK (human) (UniProt P42679)
OXSR1 (human) = OXSR1 (human) (UniProt O95747)
Sequence of OXSR1 (human) (O95747 whole entry, looked up): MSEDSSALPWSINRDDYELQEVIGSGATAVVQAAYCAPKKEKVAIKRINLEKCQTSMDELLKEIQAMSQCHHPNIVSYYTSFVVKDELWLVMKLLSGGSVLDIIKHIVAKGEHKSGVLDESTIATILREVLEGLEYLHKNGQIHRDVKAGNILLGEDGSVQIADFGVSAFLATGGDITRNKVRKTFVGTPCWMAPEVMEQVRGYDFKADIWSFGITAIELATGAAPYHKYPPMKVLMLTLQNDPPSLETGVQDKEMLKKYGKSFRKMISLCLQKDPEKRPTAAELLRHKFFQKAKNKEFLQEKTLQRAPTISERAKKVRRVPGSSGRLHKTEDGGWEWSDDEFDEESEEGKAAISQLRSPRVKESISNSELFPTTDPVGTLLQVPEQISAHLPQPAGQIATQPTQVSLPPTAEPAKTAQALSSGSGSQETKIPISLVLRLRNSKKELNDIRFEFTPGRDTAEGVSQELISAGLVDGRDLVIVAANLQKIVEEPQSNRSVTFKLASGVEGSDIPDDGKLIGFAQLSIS

PAK7 (human) = PAK7 (human) (UniProt Q9P286)
Sequence of PAK7 (human) (Q9P286 whole entry, looked up): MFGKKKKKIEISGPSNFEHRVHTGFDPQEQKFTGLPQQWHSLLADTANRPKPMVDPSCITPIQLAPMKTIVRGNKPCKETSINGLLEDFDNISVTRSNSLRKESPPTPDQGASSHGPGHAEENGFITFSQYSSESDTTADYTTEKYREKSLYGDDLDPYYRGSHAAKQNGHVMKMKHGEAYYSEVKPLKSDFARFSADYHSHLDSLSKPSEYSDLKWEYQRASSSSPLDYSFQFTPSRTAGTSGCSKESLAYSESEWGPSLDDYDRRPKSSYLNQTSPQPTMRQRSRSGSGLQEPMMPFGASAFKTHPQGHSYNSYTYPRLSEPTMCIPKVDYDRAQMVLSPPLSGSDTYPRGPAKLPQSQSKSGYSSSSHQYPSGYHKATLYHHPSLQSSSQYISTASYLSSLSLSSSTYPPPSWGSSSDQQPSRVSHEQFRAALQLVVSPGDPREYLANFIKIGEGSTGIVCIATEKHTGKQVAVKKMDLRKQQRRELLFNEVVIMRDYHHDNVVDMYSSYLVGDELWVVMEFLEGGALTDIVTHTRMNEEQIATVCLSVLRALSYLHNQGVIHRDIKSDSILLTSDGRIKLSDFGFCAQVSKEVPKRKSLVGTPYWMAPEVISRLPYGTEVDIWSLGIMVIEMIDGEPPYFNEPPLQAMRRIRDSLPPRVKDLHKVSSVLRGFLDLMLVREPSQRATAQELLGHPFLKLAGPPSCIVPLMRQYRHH

PBK (human) = PBK (human) (UniProt Q96KB5)
PKN2 (human) = PKN2 (human) (UniProt Q16513)
PRKCH (human) = PRKCH (human) (UniProt P24723)
PRKCI (human) = PRKCI (human) (UniProt P41743)
PRKD2 (human) = PRKD2 (human) (UniProt Q9BZL6)
PRKX (human) = PRKX (human) (UniProt P51817)
RPS6KA2 KD1 KD2 (human) = RPS6KA2 KD1 KD2 (human) (UniProt Q15349)
RPS6KA3 KD1 KD2 (human) = RPS6KA3 KD1 KD2 (human) (UniProt P51812)
Sequence of RPS6KA3 KD1 KD2 (human) (P51812 whole entry, looked up): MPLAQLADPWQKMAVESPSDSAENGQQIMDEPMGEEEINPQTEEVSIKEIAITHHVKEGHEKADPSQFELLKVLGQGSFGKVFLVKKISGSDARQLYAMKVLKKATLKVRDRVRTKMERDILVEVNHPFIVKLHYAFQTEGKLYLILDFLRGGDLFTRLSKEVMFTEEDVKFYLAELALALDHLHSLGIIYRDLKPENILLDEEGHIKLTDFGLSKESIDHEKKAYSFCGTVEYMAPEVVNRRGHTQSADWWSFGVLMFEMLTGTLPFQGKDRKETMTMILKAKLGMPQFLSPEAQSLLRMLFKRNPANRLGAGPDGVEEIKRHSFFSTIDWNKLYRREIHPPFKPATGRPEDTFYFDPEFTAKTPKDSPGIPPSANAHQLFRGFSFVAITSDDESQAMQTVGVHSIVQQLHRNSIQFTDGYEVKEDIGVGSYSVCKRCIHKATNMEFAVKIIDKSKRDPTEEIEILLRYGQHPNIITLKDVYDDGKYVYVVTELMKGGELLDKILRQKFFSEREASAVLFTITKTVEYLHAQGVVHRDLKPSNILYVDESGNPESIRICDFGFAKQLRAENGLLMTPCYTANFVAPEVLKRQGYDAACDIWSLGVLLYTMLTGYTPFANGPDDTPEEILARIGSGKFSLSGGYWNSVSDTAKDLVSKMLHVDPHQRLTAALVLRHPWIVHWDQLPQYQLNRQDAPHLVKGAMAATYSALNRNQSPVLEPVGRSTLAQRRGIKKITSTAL

RPS6KA4 KD2 (human) = RPS6KA4 KD2 (human) (UniProt O75676)
SRPK1 (human) = SRPK1 (human) (UniProt Q96SB4)
STK33 (human) = STK33 (human) (UniProt Q9BYT3)
TAOK2 (human) = TAOK2 (human) (UniProt Q9UL54)
Sequence of TAOK2 (human) (Q9UL54 whole entry, looked up): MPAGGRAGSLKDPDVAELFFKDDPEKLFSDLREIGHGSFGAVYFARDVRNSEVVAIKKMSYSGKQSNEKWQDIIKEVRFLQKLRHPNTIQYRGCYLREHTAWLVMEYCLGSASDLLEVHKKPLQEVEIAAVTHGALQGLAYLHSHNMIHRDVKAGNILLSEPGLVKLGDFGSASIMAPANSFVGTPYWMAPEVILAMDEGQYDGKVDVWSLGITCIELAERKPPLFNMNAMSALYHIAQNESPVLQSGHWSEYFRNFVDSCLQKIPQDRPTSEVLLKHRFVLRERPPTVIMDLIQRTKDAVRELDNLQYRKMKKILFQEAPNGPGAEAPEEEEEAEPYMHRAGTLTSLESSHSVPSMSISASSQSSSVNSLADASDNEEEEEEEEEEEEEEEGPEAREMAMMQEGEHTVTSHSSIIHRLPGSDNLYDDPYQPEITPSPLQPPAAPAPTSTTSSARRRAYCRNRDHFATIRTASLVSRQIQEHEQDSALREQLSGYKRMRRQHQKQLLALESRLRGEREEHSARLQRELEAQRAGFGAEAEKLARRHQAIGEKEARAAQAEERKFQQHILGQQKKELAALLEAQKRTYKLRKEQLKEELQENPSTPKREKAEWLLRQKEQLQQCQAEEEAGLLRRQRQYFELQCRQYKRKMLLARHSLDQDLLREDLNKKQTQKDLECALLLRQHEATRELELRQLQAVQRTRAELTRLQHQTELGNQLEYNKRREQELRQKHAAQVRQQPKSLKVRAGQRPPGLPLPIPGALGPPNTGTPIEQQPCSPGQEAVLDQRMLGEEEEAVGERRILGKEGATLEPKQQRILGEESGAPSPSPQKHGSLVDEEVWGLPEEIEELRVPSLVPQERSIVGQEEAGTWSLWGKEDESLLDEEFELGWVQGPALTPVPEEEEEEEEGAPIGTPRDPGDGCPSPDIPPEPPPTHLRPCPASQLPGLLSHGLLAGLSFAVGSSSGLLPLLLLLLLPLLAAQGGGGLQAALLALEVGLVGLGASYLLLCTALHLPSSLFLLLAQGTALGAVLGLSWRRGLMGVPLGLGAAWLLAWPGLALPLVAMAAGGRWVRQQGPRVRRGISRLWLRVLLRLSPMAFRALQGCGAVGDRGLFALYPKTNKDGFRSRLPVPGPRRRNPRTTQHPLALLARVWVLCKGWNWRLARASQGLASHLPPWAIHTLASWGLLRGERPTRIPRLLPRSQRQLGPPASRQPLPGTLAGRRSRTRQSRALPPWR

ULK1 (human) = ULK1 (human) (UniProt O75385)

Sequence of CAMK2D (human) (Q13557 whole entry, looked up): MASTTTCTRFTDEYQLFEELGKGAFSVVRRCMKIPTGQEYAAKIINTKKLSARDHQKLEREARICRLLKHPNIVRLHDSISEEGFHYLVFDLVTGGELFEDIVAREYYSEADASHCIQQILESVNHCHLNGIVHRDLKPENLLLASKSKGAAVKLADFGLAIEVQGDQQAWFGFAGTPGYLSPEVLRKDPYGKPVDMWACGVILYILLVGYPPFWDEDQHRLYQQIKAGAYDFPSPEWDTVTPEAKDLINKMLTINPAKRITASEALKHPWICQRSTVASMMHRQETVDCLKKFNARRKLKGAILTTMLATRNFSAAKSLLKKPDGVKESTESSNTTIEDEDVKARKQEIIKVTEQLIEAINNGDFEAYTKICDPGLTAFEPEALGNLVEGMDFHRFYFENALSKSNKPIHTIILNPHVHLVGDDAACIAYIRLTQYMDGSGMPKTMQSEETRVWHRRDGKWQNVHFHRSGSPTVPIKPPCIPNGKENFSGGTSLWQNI

## Nc1nnc2[nH]c3ccccc3nc1-2
ABL1 (human)
  residual activity: 91.6%
BRAF (human)
  residual activity: 102%
CAMK2D (human)
  residual activity: 89.4%
CDK5 CDK5R1 p25 (human)
  residual activity: 85.4%
CHUK (human)
  residual activity: 85.9%
CSK (human)
  residual activity: 100%
CSNK1E (human)
  residual activity: 90.2%
CSNK2A2 (human)
  residual activity: 94%
DYRK1B (human)
  residual activity: 96%
DYRK4 (human)
  residual activity: 89.2%
EPHB1 (human)
  residual activity: 92.3%
IRAK4 (human)
  residual activity: 94.7%
JAK2 JH1 JH2 (human)
  residual activity: 105%
JAK3 JH1 JH2 (human)
  residual activity: 68%
MAPK11 (human)
  residual activity: 93.8%
MAPK12 (human)
  residual activity: 100%
MAPK8 (human)
  residual activity: 89.6%
MAPK9 (human)
  residual activity: 103%
MATK (human)
  residual activity: 91.9%
OXSR1 (human)
  residual activity: 92.7%
PAK7 (human)
  residual activity: 98.4%
PBK (human)
  residual activity: 106%
PKN2 (human)
  residual activity: 98.7%
PRKCH (human)
  residual activity: 87.9%
PRKCI (human)
  residual activity: 103%
PRKD2 (human)
  residual activity: 94.5%
PRKX (human)
  residual activity: 102%
RPS6KA2 KD1 KD2 (human)
  residual activity: 89.1%
RPS6KA3 KD1 KD2 (human)
  residual activity: 88%
RPS6KA4 KD2 (human)
  residual activity: 79%
SRPK1 (human)
  residual activity: 101%
STK33 (human)
  residual activity: 98.7%
TAOK2 (human)
  residual activity: 103%
ULK1 (human)
  residual activity: 106%

## CCN(CC)CCCCN1c2ccccc2Oc2ccc(Cl)cc21
ABL1 (human)
  residual activity: 107%
BRAF (human)
  residual activity: 98.8%
CAMK2D (human)
  residual activity: 105%
CDK5 CDK5R1 p25 (human)
  residual activity: 91%
CHUK (human)
  residual activity: 98.8%
CSK (human)
  residual activity: 99.1%
CSNK1E (human)
  residual activity: 112%
CSNK2A2 (human)
  residual activity: 94.6%
DYRK1B (human)
  residual activity: 101%
DYRK4 (human)
  residual activity: 100%
EPHB1 (human)
  residual activity: 110%
IRAK4 (human)
  residual activity: 194%
JAK2 JH1 JH2 (human)
  residual activity: 104%
JAK3 JH1 JH2 (human)
  residual activity: 106%
MAPK11 (human)
  residual activity: 103%
MAPK12 (human)
  residual activity: 97.4%
MAPK8 (human)
  residual activity: 89.7%
MAPK9 (human)
  residual activity: 105%
MATK (human)
  residual activity: 99.9%
OXSR1 (human)
  residual activity: 89.8%
PAK7 (human)
  residual activity: 116%
PBK (human)
  residual activity: 105%
PKN2 (human)
  residual activity: 72.4%
PRKCH (human)
  residual activity: 108%
PRKCI (human)
  residual activity: 105%
PRKD2 (human)
  residual activity: 105%
PRKX (human)
  residual activity: 103%
RPS6KA2 KD1 KD2 (human)
  residual activity: 88%
RPS6KA3 KD1 KD2 (human)
  residual activity: 98.6%
RPS6KA4 KD2 (human)
  residual activity: 80.8%
SRPK1 (human)
  residual activity: 97.2%
STK33 (human)
  residual activity: 89.9%
TAOK2 (human)
  residual activity: 95.3%
ULK1 (human)
  residual activity: 99.8%

## O=C1Nc2ccccc2/C1=C1\Nc2ccccc2\C1=N/O
ABL1 (human)
  residual activity: 82.5%
BRAF (human)
  residual activity: 105%
CAMK2D (human)
  residual activity: 60.4%
CDK5 CDK5R1 p25 (human)
  residual activity: 28.7%
CHUK (human)
  residual activity: 97.6%
CSK (human)
  residual activity: 93%
CSNK1E (human)
  residual activity: 46.1%
CSNK2A2 (human)
  residual activity: 75%
DYRK1B (human)
  residual activity: 84.7%
DYRK4 (human)
  residual activity: 96.8%
EPHB1 (human)
  residual activity: 86.2%
IRAK4 (human)
  residual activity: 102%
JAK2 JH1 JH2 (human)
  residual activity: 84.6%
JAK3 JH1 JH2 (human)
  residual activity: 51.5%
MAPK11 (human)
  residual activity: 92.9%
MAPK12 (human)
  residual activity: 99.5%
MAPK8 (human)
  residual activity: 101%
MAPK9 (human)
  residual activity: 65.6%
MATK (human)
  residual activity: 98%
OXSR1 (human)
  residual activity: 91.7%
PAK7 (human)
  residual activity: 89.3%
PBK (human)
  residual activity: 89.5%
PKN2 (human)
  residual activity: 97.8%
PRKCH (human)
  residual activity: 74.4%
PRKCI (human)
  residual activity: 92.2%
PRKD2 (human)
  residual activity: 89%
PRKX (human)
  residual activity: 88.8%
RPS6KA2 KD1 KD2 (human)
  residual activity: 42.6%
RPS6KA3 KD1 KD2 (human)
  residual activity: 61.4%
RPS6KA4 KD2 (human)
  residual activity: 58.7%
SRPK1 (human)
  residual activity: 89.3%
STK33 (human)
  residual activity: 44.1%
TAOK2 (human)
  residual activity: 96.3%
ULK1 (human)
  residual activity: 78.9%

## COc1ccc(OC)c2c(=S)c3ccccc3[nH]c12
ABL1 (human)
  residual activity: 91.7%
BRAF (human)
  residual activity: 88.5%
CAMK2D (human)
  residual activity: 89.8%
CDK5 CDK5R1 p25 (human)
  residual activity: 85.4%
CHUK (human)
  residual activity: 94.3%
CSK (human)
  residual activity: 103%
CSNK1E (human)
  residual activity: 90.3%
CSNK2A2 (human)
  residual activity: 87.1%
DYRK1B (human)
  residual activity: 107%
DYRK4 (human)
  residual activity: 107%
EPHB1 (human)
  residual activity: 87.1%
IRAK4 (human)
  residual activity: 109%
JAK2 JH1 JH2 (human)
  residual activity: 96%
JAK3 JH1 JH2 (human)
  residual activity: 96.7%
MAPK11 (human)
  residual activity: 86.7%
MAPK12 (human)
  residual activity: 98.1%
MAPK8 (human)
  residual activity: 96.8%
MAPK9 (human)
  residual activity: 102%
MATK (human)
  residual activity: 89.5%
OXSR1 (human)
  residual activity: 90.6%
PAK7 (human)
  residual activity: 82.9%
PBK (human)
  residual activity: 107%
PKN2 (human)
  residual activity: 105%
PRKCH (human)
  residual activity: 86.2%
PRKCI (human)
  residual activity: 99.3%
PRKD2 (human)
  residual activity: 88.1%
PRKX (human)
  residual activity: 93.5%
RPS6KA2 KD1 KD2 (human)
  residual activity: 87.4%
RPS6KA3 KD1 KD2 (human)
  residual activity: 109%
RPS6KA4 KD2 (human)
  residual activity: 93.5%
SRPK1 (human)
  residual activity: 99.9%
STK33 (human)
  residual activity: 98.4%
TAOK2 (human)
  residual activity: 100%
ULK1 (human)
  residual activity: 114%
